Among the data in patent US10053461B2 (Hoffmann-La Roche Inc., priority 2015, dated 2018) are IC50 values, retold here.

Read-outs that look alike come from different tables or passages of the source. Some results are limits rather than exact numbers.

The test system of one experiment is HBV DNA. In words: HBV DNA assay (real-time qPCR of extracellular HBV DNA, HepG2.2.15 cells). In kind it is cell-based. As to conditions: Hepatitis B virus, 144 h; Anti HBV DNA production activity in HepG2.2.15 cells, six days. How it is done: The assay employs real-time qPCR (TaqMan) to directly measure extracellular HBV DNA copy number. HepG2.2.15 cells were plated in 96-well microtiter plates. Only the interior wells were utilized to reduce “edge effects” observed during cell culture, the exterior wells were filled with complete medium to help minimize sample evaporation. On the following day, the HepG2.2.15 cells were washed and the medium was replaced with complete medium containing various concentrations of a test compound in triplicate. 3TC was used as the positive control, while media alone was added to cells as a negative control (virus control, VC). Three days later, the culture medium was replaced with fresh medium containing the appropriately diluted drug. Six days following the initial administration of the test compound, the cell culture supernatant was collected, treated with pronase and then used in a real-time qPCR/TaqMan assay to determine HBV DNA copy numbers. Antiviral activity was calculated from the reduction in HBV DNA levels (IC50).

Experiment [1] relates to HBsAg. Briefly: microbe, parasite or virus in culture. To be noted: Hepatitis B virus, HepG2.2.15.
Description: (§1) HepG2.2.15 cells (Acs et al. Proc Natl Acad Sci USA, 84, (1987), 4641-4), a constitutively HBV-expressing cell line were cultured in DMEM+Glutamax-I medium (Invitrogen, Carlsbad, Calif., USA), supplemented with 10% fetal bovine serum (Invitrogen) and G418 (Invitrogen) at a final concentration of 200 mg/L and maintained in 5% CO2 at 37° C.
(§2) HepG2.2.15 cells were seeded in duplicate into white, 96-well plates at 1.5×10^4 cells/well. The cells were treated with a three-fold serial dilution series of the compounds in DMSO. The final DMSO concentration in all wells was 1% and DMSO was used as no drug control.
(§3) The HBsAg chemiluminescence immunoassay (CLIA) kit (Autobio Diagnostics Co., Zhengzhou, China, Catalog number: CL0310-2) was used to measure the levels of secreted HBV antigens semi-quantitatively. For the detection 50 μL/well culture supernatant was used and HBsAg was quantified using HBsAg chemiluminescence immunoassay (CLIA) kit (Autobio Diagnostics Co., Zhengzhou, China, Catalog number: CL0310-2), 50 μL of the supernatant was transferred to the CLIA assay plate and 50 μL of enzyme conjugate reagent was added into each well. The plates were sealed and gently agitated for 1 hour at room temperature. The supernatant-enzyme-mixture was discarded and wells were washed 6 times with 300 μL of PBS. The residual liquid was removed by plating the CLIA plate right side down on absorbent tissue paper. 25 μL of substrates A and B were added to each well. Luminance was measured using a luminometer (Mithras LB 940 Multimode Microplate Reader) after 10 minutes incubation. Dose-response curves were generated and the IC50 value was extrapolated by using the E-WorkBook Suite (ID Business Solutions Ltd., Guildford, UK). The IC50 was defined as the compound concentration (or conditioned media log dilution) at which HBsAg secretion was reduced by 50% compared to the no drug control.
(§4) The compounds of the present invention were tested for their activity to inhibit HBsAg as described herein.
For experiment [2], the system named is HBsAg. To be noted: HBsAg secretion reduced by 50% vs no drug control, HepG2.2.15 cells.
Description: as §1, §2, §3, §4

Usually IC50 stands for the concentration that inhibits the measured activity by half. A lower IC50 goes with higher potency. For the compound `COc1cc2c(cc1OCc1ccccc1)[C@H]1CCC(C)(C)[C@H]1n1cc(C(=O)O)c(=O)cc1-2` (relative stereo) [Example 3, Cis-11-(benzyloxy)-10-methoxy-3,3-dimethyl-7-oxo-1,2,3,3a,7,12b-hexahydrocyclopenta[c]pyrido[2,1-a]isoquinoline-6-carboxylic acid], the IC50 in the experiment on HBV DNA was found to be 40 nM; in the experiment on HBsAg [1] it was 3 nM.

Take `COCCCOc1cc2c(cc1Cl)-c1cc(=O)c(C(=O)O)cn1[C@@H]1CCCCC[C@H]21` (relative stereo) [Example 28, cis-13-chloro-12-(3-methoxypropoxy)-2-oxo-2,5a,6,7,8,9,10,10a-octahydrocyclohepta[c]pyrido[2,1-a]isoquinoline-3-carboxylic acid]: the IC50 was less than 32 nM with HBV DNA and 3 nM in the experiment on HBsAg [1].

For the compound `COc1cc2c(cc1OCc1ccccc1)[C@H]1CCC(C)(C)[C@H]1n1cc(C(=O)O)c(=O)cc1-2` [Example 4, (3aS,12bR)-11-(benzyloxy)-10-methoxy-3,3-dimethyl-7-oxo-1,2,3,3a,7,12b-hexahydrocyclopenta[c]pyrido[2,1-a]isoquinoline-6-carboxylic acid], the IC50 in the experiment with HBsAg [2] is 3 nM.

Compound `COc1cc2c(cc1OCc1ccccc1)[C@@H]1CCC(C)(C)[C@@H]1n1cc(C(=O)O)c(=O)cc1-2` [Example 5, (3aR,12bS)-11-(benzyloxy)-10-methoxy-3,3-dimethyl-7-oxo-1,2,3,3a,7,12b-hexahydrocyclopenta[c]pyrido[2,1-a]isoquinoline-6-carboxylic acid] gave an IC50 in the experiment on HBsAg [1] of 308 nM. This counts as sub-micromolar.

Turning to `CCc1cc2c(cc1OC)-c1cc(=O)c(C(=O)O)cn1[C@H]1[C@@H]2CCC1(C)C` [Example 39], in the experiment with HBsAg [1], the IC50 is 20 nM.
